The values below come from PMC9405451, “Uptake and Immunomodulatory Properties of Betanin, Vulgaxanthin I and Indicaxanthin towards Caco-2 Intestinal Cells” (Antioxidants, 2022).

Data set [1] can be described thus: EPR DPPH radical scavenging assay. The following applies: 20 μM betalain. Here is the method: (§1) Electron paramagnetic resonance (EPR) with spin trapping was used to determine superoxide and DPPH radical scavenging abilities of betalains reflected by the reduction of relative signal strength. EPR spectra were recorded 1 min after reagent mixing on a JEOL X320 spectrometer (X-band) in glass capillaries (0.8 mm ID). Superoxide assay was carried out by mixing the following solutions in 30% aqueous ethanol as solvent: hypoxanthine (1 mM, 55 μL), 5,5-dimethyl-1-pyrroline-N-oxide (DMPO) (1 M, 15 μL) and deferoxamine (10 mM, 10 μL). Individual betalains (200 and 500 μM) or solvent control were subsequently added in a volume of 10 μL. The reaction was initiated by the addition of 2 U mL^−1 xanthine oxidase (10 μL), achieving 20 and 50 μM as final concentrations of betalains in the mixture.
(§2) The 2,2-diphenyl-1-(2,4,6-trinitrophenyl)hydrazyl (DPPH) assay was conducted by mixing ethanol (40 μL) with 30% aqueous ethanol solutions of DPPH (100 μM, 50 μL) and purified betalains (200 μM, 10 μL), providing the working concentration of betalains as 20 μM. In both assays, acquisition of EPR spectra was started 1 min after reagent mixing. To improve the accuracy of measurements, the signal intensity for the superoxide assay was determined in triplicate by fitting the experimental spectra to the simulated superoxide-DMPO adduct spectra.

Data set [2] is described as follows: EPR spin-trapping superoxide radical scavenging assay. The following applies: 20, 50 μM betalain. Here is the method: as §1, §2
Data set [3] is described as follows: Trans-epithelial transport (AP-to-BL) across differentiated Caco-2 monolayer. It is filed as in vitro ADME, human. The conditions noted are these: human, Caco-2, 1 mM in AP chamber, apical pH 6.5, basolateral pH 7.5, read-out: Papp (apparent permeability coefficient), absorptive direction AP-to-BL. How it is done:
(§3) Trans-epithelial transport of purified betalains (AP-to-BL) was investigated in differentiated Caco-2 cells in 12-well plate transwell inserts (PET membrane, 0.4 μm pore size, Sarstedt) at an initial density of 1 × 10^5 cells cm^−2. Complete medium was added in both apical (AP) and basolateral (BL) chambers and was replaced every 2–3 days. Cell membrane integrity was monitored weekly through measurement of trans-epithelial electrical resistance (TEER) across the growth area until full differentiation of the cells after 21 days. During the experiment, Hanks’ balanced salt solution (HBSS) in the apical compartment was adjusted to pH 6.5 with MES (2 mM), while basolateral pH remained at 7.5 [25]. Purified BET, VUL and IND (420–1000 μM) were supplied to the apical side of the membrane and incubated at 37 °C for up to 2 h. As a marker compound of paracellular transport, phenolsulfonaphtalein (5 mM) was also applied to parallel cell membranes in the apical chamber. The study also evaluated the permeability of compounds through the Caco-2 membrane with a loosened tight junction in parallel wells which was achieved by 5-min incubation of differentiated membrane in trypsin EDTA (0.05%, v/v). The basolateral solution was collected and replaced every 30 min until 2 h, under initial rate conditions. The betalain-containing solutions were processed and submitted to LC-MS analysis, while phenolsulfonaphtalein was quantified spectrophotometrically at λ of 430 nm. TEER values were monitored at the beginning and the end of the experiment to check the impact of compounds on monolayer integrity. The apparent permeability coefficients (Papp) were calculated as per Equation (1), where V = volume of basolateral solution, A = cell growth area, C0 = initial concentration of apical betalain and dC/dt = steady-state flux across the monolayer. (1) Papp=1/C0×A·V×dC/dt
(§4) Betalain compounds from the cell culture samples were quantified and identified by an ultra-high-speed LC fitted with a UV-Vis detector (SPD-20A), followed by a single quadrupole MS with an electrospray ionisation source (ESI) (Shimazu, 2020). HPLC separation was performed by a reverse phase C18 column (100 mm × 2.1 mm I.D., 3.5 μm) at the temperature of 35 °C. […] Betacyanins and betaxanthins were detected at the wavelengths of 536 nm and 486 nm, respectively, and their molecular weights were monitored by ESI-MS with positive ion mode. Compounds were identified based on the m/z values and quantified using standard curves with purified betalains, as shown in Supplemental Figure S1.

For data set [4], the system named is differentiated Caco-2 cells. Described as above. It is filed as in vitro ADME, human. The conditions noted are these: AP-to-BL. How it is done:
as §3, §4

The subject of data set [5] is NQO-1. On the set-up: method as in PMID 23769299. The conditions noted are these: 20 μM, human hepatocytes; cited from earlier work.
Data set [6] has as its system HO-1. Put plainly: HO-1 mRNA level (qPCR) in cytokine-stimulated Caco-2 cells. It counts as cell-based, human. The conditions noted are these: 5–80 μM, 6 h cytokine stimulation, vs SC. How it is done:
(§5) Confluent Caco-2 cells were stimulated with a cocktail of cytokines comprised of tumour necrosis factor-α (TNF-α, 20 ng mL^−1), interleukin-1β (IL-1β, 40 ng mL^−1), interferon-γ (IFN-γ, 10 ng mL^−1) and lipopolysaccharide (LPS, 100 ng mL^−1) in the presence or absence of BET, VUL and IND treatments (5–80 µM) for 6 h. With the completion of incubations, cells were washed with cold DPBS and lysed with TRIsure reagent (Scientific Laboratory Supplies Ltd.). Total RNA of cell samples was extracted in accordance with the manufacturer’s instructions. After resuspending the RNA pellets in DEPC water, concentration and quality were determined using the NanoQuant plate (Tecan Spark 10M plate reader) at 260 and 280 nm. Reverse transcription of RNA was achieved using the iScript™ cDNA Synthesis Kit (Bio-Rad). Transcription levels of target genes—interleukin 6 (IL-6), IL-8, COX-2, iNOS, NADPH oxidase 1 (NOX-1), NAD(P)H quinone dehydrogenase 1 (NQO-1), heme oxygenase 1 (HO-1), glutamate-cysteine ligase catalytic subunit (GCLC), glutathione peroxidase 1 (GPX-1), glutathione S-transferase 1 (GSTA-1) and GSTP-1 were evaluated using SybrGreen based reagent (SensiFast SYBR Green, SLS Ltd., Galveston, TX, USA) via real-time qPCR using StepOne Plus Real-Time PCR System (Applied Biosystems, Nottingham, UK). […]

Data set [7] concerns GSTP-1. As to the kind of experiment: GSTP-1 mRNA level (qPCR) in cytokine-stimulated Caco-2 cells. It counts as cell-based, human. The conditions noted are these: 5–80 μM, 6 h cytokine stimulation, vs SC. Here is the method:
as §5
(Real-time PCR tracks product formation cycle by cycle.)

Data set [8] has as its system GSTM. Details: method as in PMID 23769299. The conditions noted are these: 20 μM, human hepatocytes; cited from earlier work.

Each structure is given as a SMILES string. Where only a bound is given, the exact number is not on record here.

As for `O=C(O)C1=C/C(=C/C=[N+]2/CCC[C@H]2C(=O)[O-])C[C@@H](C(=O)O)N1` [IND, indicaxanthin], the “Antiradical activity in DPPH assay (EPR)” value in data set [1] was “did not exhibit any evident antiradical activity”. In data set [2], the “Antiradical activity in superoxide assay (EPR)” value is “did not exhibit any evident antiradical activity”. Also, the Papp A→B at 2 h, 1 mM in data set [3] turned out to be 0.893 ×10⁻⁶ cm/s. For the same compound, the “Proportion transported within 2 h of total amount applied” value in data set [4] is given as 2.2%.

For the compound `O=C(O)C1=C/C(=C/C=[N+]2/c3cc(O)c(O[C@@H]4O[C@H](CO)[C@@H](O)[C@H](O)[C@H]4O)cc3C[C@H]2C(=O)[O-])C[C@@H](C(=O)O)N1` [BET, betanin], the “Decrease in EPR signal intensity, DPPH assay” value in data set [1] is recorded as below 71%. The “Increase of NQO-1 expression in the baseline” value in data set [5] is reported as “ca. 60%”. In data set [6], the “Upregulation of HO-1 expression” value is below 24%. Moreover, the “Decrease in EPR signal intensity, superoxide assay” value in data set [2] is on record as below 35%. The “Upregulation of GSTP-1 expression” value in data set [7] is below 24%. In addition, the Papp A→B at 2 h, 1 mM in data set [3] is 0.415 ×10⁻⁶ cm/s. The “Proportion transported within 2 h of total amount applied” value in data set [4] is listed as 1.0%. For the same compound, the “Increase of GSTM expression in the baseline” value in data set [8] is listed as around 100%.
